Laboratory results taken from ChEMBL document CHEMBL1201861, “Genomics of Drug Sensitity in Cancer screening data, Wellcome Trust Sanger Institute”.

Tests used:
Experiment in all cases: cells
COR-L23 = assay type: functional, cell-based, Homo sapiens; conditions: Homo sapiens, COR-L23;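 also: cell viability assay measuring how strongly compounds suppress growth of COR-L23 cells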
Description: SANGER: Inhibition of human COR-L23 cell growth in a cell viability assay.

Calu-3 = assay type: functional, cell-based, Homo sapiens; conditions: Homo sapiens, Calu-3;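 also: growth inhibition of human Calu-3 cells, determined with a cell viability assay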
Description: SANGER: Inhibition of human Calu-3 cell growth in a cell viability assay.

DU-145 = assay type: functional, cell-based, Homo sapiens; conditions: Homo sapiens, DU-145
Description: SANGER: Inhibition of human DU-145 cell growth in a cell viability assay.

ECC4 = assay type: functional, cell-based, Homo sapiens; conditions: Homo sapiens, ECC4;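 also: growth inhibition of ECC4 cells, read out with a cell viability assay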
Description: SANGER: Inhibition of human ECC4 cell growth in a cell viability assay.

EFM-19 = assay type: functional, cell-based, Homo sapiens; conditions: Homo sapiens, EFM-19;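 also: growth inhibition of human EFM-19 cells, measured in a cell viability assay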
Description: SANGER: Inhibition of human EFM-19 cell growth in a cell viability assay.

FaDu = assay type: functional, cell-based, Homo sapiens; conditions: Homo sapiens, FaDu;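 also: cell viability readout of growth inhibition in FaDu cells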
Description: SANGER: Inhibition of human FADU cell growth in a cell viability assay.

HCC70 = assay type: functional, cell-based, Homo sapiens; conditions: Homo sapiens, HCC70;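 also: cell viability assay measuring how strongly the compound suppresses proliferation of HCC70 cells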
Description: SANGER: Inhibition of human HCC70 cell growth in a cell viability assay.

HMV-2 cell line = assay type: functional, cell-based, Homo sapiens; conditions: Homo sapiens, HMV-2;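 also: growth inhibition of HMV-II cells, read out with a cell viability assay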
Description: SANGER: Inhibition of human HMV-II cell growth in a cell viability assay.

HO-1-N-1 = assay type: functional, cell-based, Homo sapiens; conditions: Homo sapiens, HO-1-N-1;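 also: growth inhibition of human HO-1-N-1 cells, read out with a cell viability assay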
Description: SANGER: Inhibition of human HO-1-N-1 cell growth in a cell viability assay.

HSC-4 = assay type: functional, cell-based, Homo sapiens; conditions: Homo sapiens, HSC-4;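 also: growth inhibition of human HSC-4 cells, read out with a cell viability assay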
Description: SANGER: Inhibition of human HSC-4 cell growth in a cell viability assay.

HuCCT-1 = assay type: functional, cell-based, Homo sapiens, HuCCT1; conditions: Homo sapiens, HuCCT-1;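 also: growth inhibition of HuCCT-1 cells, read out by a cell viability assay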
Description: SANGER: Inhibition of human HuCCT1 cell growth in a cell viability assay.

KYSE-450 = assay type: functional, cell-based, Homo sapiens; conditions: Homo sapiens, KYSE-450;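 also: cell growth inhibition measured by a viability assay in human KYSE-450 cells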
Description: SANGER: Inhibition of human KYSE-450 cell growth in a cell viability assay.

LCLC-103H cell line = assay type: functional, cell-based, Homo sapiens; conditions: Homo sapiens, LCLC-103H
Description: SANGER: Inhibition of human LCLC-103H cell growth in a cell viability assay.

LK-2 = assay type: functional, cell-based, Homo sapiens; conditions: Homo sapiens, LK-2;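 also: growth inhibition of LK-2 cells, read out with a viability assay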
Description: SANGER: Inhibition of human LK-2 cell growth in a cell viability assay.

MDA-MB-415 = assay type: functional, cell-based, Homo sapiens; conditions: Homo sapiens, MDA-MB-415
MDA-MB-453 = assay type: functional, cell-based, Homo sapiens; conditions: Homo sapiens, MDA-MB-453
Description: SANGER: Inhibition of human MDA-MB-453 cell growth in a cell viability assay.

MG-63 = assay type: functional, cell-based, Homo sapiens; conditions: Homo sapiens, MG-63;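 also: growth inhibition of human MG-63 cells, read out with a cell viability assay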
Description: SANGER: Inhibition of human MG-63 cell growth in a cell viability assay.

MKN-7 = assay type: functional, cell-based, Homo sapiens; conditions: Homo sapiens, MKN-7;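 also: growth inhibition of MKN-7 cells, read out with a cell viability assay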
Description: SANGER: Inhibition of human MKN7 cell growth in a cell viability assay.

NALM-6 = assay type: functional, cell-based, Homo sapiens; conditions: Homo sapiens, NALM-6;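 also: growth inhibition of NALM-6 cells, read out with a cell viability assay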
Description: SANGER: Inhibition of human NALM-6 cell growth in a cell viability assay.

NCI-H2052 = assay type: functional, cell-based, Homo sapiens; conditions: Homo sapiens, NCI-H2052;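 also: growth inhibition of NCI-H2052 cells, read out with a cell viability assay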
Description: SANGER: Inhibition of human NCI-H2052 cell growth in a cell viability assay.

NCI-H2081 = assay type: functional, cell-based, Homo sapiens; conditions: Homo sapiens, NCI-H2081;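 also: growth inhibition of human NCI-H2081 cells, read out with a cell viability assay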
Description: SANGER: Inhibition of human NCI-H2081 cell growth in a cell viability assay.

NCI-H2405 = assay type: functional, cell-based, Homo sapiens; conditions: Homo sapiens, NCI-H2405;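 also: growth inhibition of the human cell line, read out with a cell viability assay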
Description: SANGER: Inhibition of human NCI-H2405 cell growth in a cell viability assay.

NCI-H345 = assay type: functional, cell-based, Homo sapiens; conditions: Homo sapiens, NCI-H345;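 also: growth inhibition of NCI-H345 cells measured with a cell viability assay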
Description: SANGER: Inhibition of human NCI-H345 cell growth in a cell viability assay.

NCI-H64 = assay type: functional, cell-based, Homo sapiens; conditions: Homo sapiens, NCI-H64;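 also: growth inhibition of NCI-H64 cells, read out with a cell viability assay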
Description: SANGER: Inhibition of human NCI-H64 cell growth in a cell viability assay.

PANC-08-13 = assay type: functional, cell-based, Homo sapiens; conditions: Homo sapiens, PANC-08-13;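 also: cell growth inhibition, measured with a cell viability assay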
Description: SANGER: Inhibition of human PANC-08-13 cell growth in a cell viability assay.

PC-3 = assay type: functional, cell-based, Homo sapiens; conditions: Homo sapiens, PC-3;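 also: cell viability assay measuring growth inhibition of PC-3 cells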
Description: SANGER: Inhibition of human PC-3 cell growth in a cell viability assay.

SK-MEL-30 = assay type: functional, cell-based, Homo sapiens; conditions: Homo sapiens, SK-MEL-30;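 also: growth inhibition of SK-MEL-30 cells, determined with a cell viability assay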
Description: SANGER: Inhibition of human SK-MEL-30 cell growth in a cell viability assay.

SK-MES-1 = assay type: functional, cell-based, Homo sapiens; conditions: Homo sapiens, SK-MES-1;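 also: growth inhibition of human SK-MES-1 cells, read out with a cell viability assay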
Description: SANGER: Inhibition of human SK-MES-1 cell growth in a cell viability assay.

SUP-T1 = assay type: functional, cell-based, Homo sapiens; conditions: Homo sapiens, SUP-T1;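 also: growth inhibition of human SUP-T1 cells, read out as cell viability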
Description: SANGER: Inhibition of human SUP-T1 cell growth in a cell viability assay.

SW13 = assay type: functional, cell-based, Homo sapiens; conditions: Homo sapiens, SW13;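 also: IC50 is inhibition of SW13 cell growth, read out with a cell viability assay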
Description: SANGER: Inhibition of human SW13 cell growth in a cell viability assay.

SW1417 = assay type: functional, cell-based, Homo sapiens; conditions: Homo sapiens, SW1417;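 also: growth inhibition of human SW1417 cells, read out with a cell viability assay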
Description: SANGER: Inhibition of human SW1417 cell growth in a cell viability assay.

SW1463 = assay type: functional, cell-based, Homo sapiens; conditions: Homo sapiens, SW1463;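 also: growth inhibition of SW1463 cells, determined with a cell viability assay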
Description: SANGER: Inhibition of human SW1463 cell growth in a cell viability assay.

23132-87 = assay type: functional, cell-based, Homo sapiens; conditions: Homo sapiens
Description: SANGER: Inhibition of human 23132-87 cell growth in a cell viability assay.

8505C = assay type: functional, cell-based, Homo sapiens; conditions: Homo sapiens, 8505C
Description: SANGER: Inhibition of human 8505C cell growth in a cell viability assay.

A-431 = assay type: functional, cell-based, Homo sapiens; conditions: Homo sapiens, A-431;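 also: growth inhibition of A-431 cells, determined with a cell viability read-out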
Description: SANGER: Inhibition of human A431 cell growth in a cell viability assay.

A673 = assay type: functional, cell-based, Homo sapiens; conditions: Homo sapiens, A673;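 also: growth inhibition of human A673 cells, read out through a cell viability assay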
Description: SANGER: Inhibition of human A673 cell growth in a cell viability assay.

ACHN = assay type: functional, cell-based, Homo sapiens; conditions: Homo sapiens, ACHN;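 also: cell viability read-out used to gauge how strongly growth of human ACHN cells is suppressed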
Description: SANGER: Inhibition of human ACHN cell growth in a cell viability assay.

BCPAP = assay type: functional, cell-based, Homo sapiens; conditions: Homo sapiens, BCPAP;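 also: growth inhibition of BCPAP cells, read out in a cell viability assay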
Description: SANGER: Inhibition of human BCPAP cell growth in a cell viability assay.

BFTC-905 = assay type: functional, cell-based, Homo sapiens; conditions: Homo sapiens, BFTC-905
Description: SANGER: Inhibition of human BFTC-905 cell growth in a cell viability assay.

CAL-33 = assay type: functional, cell-based, Homo sapiens; conditions: Homo sapiens, CAL-33;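 also: growth inhibition of CAL-33 cells, read out with a cell viability assay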
Description: SANGER: Inhibition of human CAL-33 cell growth in a cell viability assay.

CAL-62 = assay type: functional, cell-based, Homo sapiens; conditions: Homo sapiens, CAL-62;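 also: growth inhibition of CAL-62 cells, read out with a cell viability assay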
Description: SANGER: Inhibition of human CAL-62 cell growth in a cell viability assay.

TUR = assay type: functional, cell-based, Homo sapiens; conditions: Homo sapiens, TUR;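 also: growth inhibition of human TUR cells, read out with a cell viability assay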
Description: SANGER: Inhibition of human TUR cell growth in a cell viability assay.

UO-31 = assay type: functional, cell-based, Homo sapiens; conditions: Homo sapiens, UO-31;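 also: cell viability assay measuring inhibition of cell growth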
Description: SANGER: Inhibition of human U031 cell growth in a cell viability assay.

CAMA-1 = assay type: functional, cell-based, Homo sapiens; conditions: Homo sapiens, CAMA-1;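 also: growth inhibition of CAMA-1 cells, read out with a cell viability assay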
Description: SANGER: Inhibition of human CAMA-1 cell growth in a cell viability assay.

CAPAN-1 = assay type: functional, cell-based, Homo sapiens; conditions: Homo sapiens, CAPAN-1;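 also: growth suppression of CAPAN-1 cells, read out by a cell viability assay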
Description: SANGER: Inhibition of human CAPAN-1 cell growth in a cell viability assay.

COLO-680N = assay type: functional, cell-based, Homo sapiens; conditions: Homo sapiens, COLO-680N;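 also: cell viability assay used to measure inhibition of COLO-680N cell growth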
Description: SANGER: Inhibition of human COLO-680N cell growth in a cell viability assay.

Measured: IC50

CCC/C=C/C=C/C(=O)O[C@H]1/C(=C/C(=O)OC)C[C@H]2C[C@H]([C@@H](C)O)OC(=O)C[C@H](O)C[C@@H]3C[C@H](OC(C)=O)C(C)(C)[C@](O)(C[C@@H]4C/C(=C/C(=O)OC)C[C@H](/C=C/C(C)(C)[C@]1(O)O2)O4)O3 [BRYOSTATIN 1]
0.00226 µM: HMV-2 cell line
> 0.008 µM: all other assays above

C=C(c1ccc(C(=O)O)cc1)c1cc2c(cc1C)C(C)(C)CCC2(C)C [BEXAROTENE]
0.789 µM: MG-63
> 8 µM: all other assays above

Oc1ccc2ccccc2c1SSc1c(O)ccc2ccccc12
20.1 µM: HuCCT-1
0.977 µM: NALM-6
5.15 µM: BFTC-905
27.3 µM: EFM-19
11.6 µM: SK-MES-1
11.2 µM: 8505C
18.5 µM: LCLC-103H cell line
29.2 µM: LK-2
12 µM: NCI-H2405
8.21 µM: DU-145
11.8 µM: COR-L23
> 32 µM: all other assays above
